Literature values as cited in paper PMC7700871 (ACS chemical biology, 2020).

Molecular target: Abl-1 (Homo sapiens, UniProt P00519)
Conditions: cited from earlier work

Abl-1, sequence (P00519 whole entry, species assumed): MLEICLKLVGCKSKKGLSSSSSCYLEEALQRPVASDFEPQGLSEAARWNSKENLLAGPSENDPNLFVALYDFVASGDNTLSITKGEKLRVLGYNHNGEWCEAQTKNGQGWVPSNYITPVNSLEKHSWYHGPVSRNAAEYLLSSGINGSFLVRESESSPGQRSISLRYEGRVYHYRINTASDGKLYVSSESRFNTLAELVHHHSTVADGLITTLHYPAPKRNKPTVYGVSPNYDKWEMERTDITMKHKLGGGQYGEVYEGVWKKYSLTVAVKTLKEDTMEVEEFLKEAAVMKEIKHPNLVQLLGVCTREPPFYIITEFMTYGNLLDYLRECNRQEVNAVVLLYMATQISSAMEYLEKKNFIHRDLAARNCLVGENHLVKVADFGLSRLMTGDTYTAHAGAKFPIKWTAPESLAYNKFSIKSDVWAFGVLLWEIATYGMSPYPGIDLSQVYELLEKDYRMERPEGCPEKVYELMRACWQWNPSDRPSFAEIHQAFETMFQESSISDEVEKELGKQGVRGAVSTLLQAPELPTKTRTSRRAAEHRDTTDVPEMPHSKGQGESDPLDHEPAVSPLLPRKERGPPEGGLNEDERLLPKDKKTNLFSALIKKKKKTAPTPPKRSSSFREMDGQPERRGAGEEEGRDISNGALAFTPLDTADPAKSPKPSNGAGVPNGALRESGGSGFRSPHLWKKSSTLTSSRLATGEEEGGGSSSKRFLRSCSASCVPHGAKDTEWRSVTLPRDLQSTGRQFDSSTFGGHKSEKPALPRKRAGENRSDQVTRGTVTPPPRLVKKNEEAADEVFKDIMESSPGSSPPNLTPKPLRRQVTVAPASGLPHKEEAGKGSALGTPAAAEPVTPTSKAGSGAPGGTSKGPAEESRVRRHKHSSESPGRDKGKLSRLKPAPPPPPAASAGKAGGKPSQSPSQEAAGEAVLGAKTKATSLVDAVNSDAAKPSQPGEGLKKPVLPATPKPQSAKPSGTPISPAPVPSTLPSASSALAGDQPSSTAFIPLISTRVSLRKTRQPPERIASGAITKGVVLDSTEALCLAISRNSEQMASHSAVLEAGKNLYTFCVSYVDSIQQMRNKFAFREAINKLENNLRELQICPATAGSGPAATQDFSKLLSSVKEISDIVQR

Cc1ccc(NC(=O)c2ccc(CN3CC[C@H](N(C)C)C3)c(C(F)(F)F)c2)cc1Nc1nccc(-c2cncnc2)n1 [bafetinib]
global conformation of Abl-1's SH3-SH2-CD module: promote an open global conformation
